Reference: ChEMBL document CHEMBL1150826, “Antibacterial diterpenes from the roots of Salvia blepharochlaena” (2001)
Values after ≈ are worked out from the molar mass of the structure shown. Active and inactive are the calls of the source. The calls are words filed in the database; no cut-off is given here.

Key:
[1] = tested on: Mycobacterium tuberculosis; experiment: Antimycobacterial activity against Mycobacterium tuberculosis by broth microdilution method; type: functional, organism-based
Bacillus subtilis [2] = experiment: Antimicrobial activity against Bacillus subtilis ATCC 6633 by disc-diffusion method; type: functional
Staphylococcus aureus [3] = experiment: Antimicrobial activity against Staphylococcus aureus ATCC 6538 by tube dilution method; type: functional
[4] = tested on: Staphylococcus epidermidis; experiment: Antimicrobial activity against Staphylococcus epidermidis ATCC 12228 by tube dilution method; type: functional
Bacillus subtilis [5] = experiment: Antimicrobial activity against Bacillus subtilis ATCC 6633 by tube dilution method; type: functional
Staphylococcus aureus [6] = experiment: Antimicrobial activity against Staphylococcus aureus ATCC 6538 by disc-diffusion method; type: functional
[7] = tested on: Staphylococcus epidermidis; experiment: Antimicrobial activity against Staphylococcus epidermidis ATCC 12228 by disc-diffusion method; type: functional
Escherichia coli = experiment: Antimicrobial activity against Escherichia coli by disc-diffusion method; type: functional, organism-based
Proteus mirabilis = experiment: Antimicrobial activity against Proteus mirabilis by disc-diffusion method; type: functional, organism-based
Klebsiella pneumoniae = experiment: Antimicrobial activity against Klebsiella pneumoniae by disc-diffusion method; type: functional, organism-based
Pseudomonas aeruginosa = experiment: Antimicrobial activity against Pseudomonas aeruginosa by disc-diffusion method; type: functional, organism-based
Candida albicans = experiment: Antimicrobial activity against Candida albicans by disc-diffusion method; type: functional, organism-based
Enterococcus faecalis [8] = experiment: Antimicrobial activity against Enterococcus faecalis ATCC 29212 by tube dilution method; type: functional
Enterococcus faecalis [9] = experiment: Antimicrobial activity against Enterococcus faecalis ATCC 29212 by disc-diffusion method; type: functional

| Compound | Activity [1] | inhibition zone (IZ) (Bacillus subtilis [2]) [mm] | MIC (Staphylococcus aureus [3]) [µg/mL] | MIC [4] [µg/mL] | MIC (Bacillus subtilis [5]) [µg/mL] | inhibition zone (IZ) (Staphylococcus aureus [6]) | inhibition zone (IZ) [7] | inhibition zone (IZ) (Escherichia coli) | inhibition zone (IZ) (Proteus mirabilis) | inhibition zone (IZ) (Klebsiella pneumoniae) | inhibition zone (IZ) (Pseudomonas aeruginosa) | inhibition zone (IZ) (Candida albicans) | MIC (Enterococcus faecalis [8]) [µg/mL] | inhibition zone (IZ) (Enterococcus faecalis [9]) |
| --- | --- | --- | --- | --- | --- | --- | --- | --- | --- | --- | --- | --- | --- | --- |
| COc1cc2c3c(ccc2c(C)c1C)C=C(C(C)C)C(=O)C3=O | Active |  |  |  |  |  |  |  |  |  |  |  |  |  |
| Cc1c(O)cc2c3c(ccc2c1C)C=C(C(C)C)C(=O)C3=O | Active |  |  |  |  |  |  |  |  |  |  |  |  |  |
| COc1cc2c(ccc3c(C)c(C)ccc32)cc1C(C)C | Active |  |  |  |  |  |  |  |  |  |  |  |  |  |
| CC(C)c1cc2c(cc1O)[C@@]1(C)CCCC(C)(C)[C@@H]1CC2 [FERRUGINOL] |  | >7 | > 250 | > 250 | > 250 | >7 mm | >7 mm |  |  |  |  |  |  |  |
| CC(C)C1=C(O)C(=O)C2=C(C1=O)[C@H](O)C[C@H]1C(C)(C)CCC[C@]21C [HORMINONE] |  | >7 | 6.5 (≈ 19.6 µM) | 1.5 (≈ 4.51 µM) | 1.5 (≈ 4.51 µM) | >7 mm | >7 mm | inactive | inactive | inactive | inactive | inactive | 14 (≈ 42.1 µM) | >7 mm |
| COc1cc2c(cc1C(C)C)CC[C@H]1C(C)(C)CCC[C@]21C(=O)O |  | >7 |  |  | 6.5 (≈ 19.7 µM) | inactive | inactive | inactive | inactive | inactive | inactive | inactive |  | inactive |
| CC(=O)O[C@@H]1C[C@H]2C(C)(C)CCC[C@]2(C)C2=C1C(=O)C(C(C)C)=C(O)C2=O |  | >7 | 10 (≈ 26.7 µM) | 6 (≈ 16 µM) | 3 (≈ 8.01 µM) | >7 mm | >7 mm | inactive | inactive | inactive | inactive | inactive |  | inactive |
